Measured values: the supplement of paper PMC10307832

What was measured:
Test in all cases: relative viability (nuclei count vs DMSO), 5 days (fraction); higher = more cells survive
[1] = test system: ABC-1
Procedure, shortened: (§1)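 Medians of duplicate plates are given as relative viability. That measure is the nuclei count in treated wells divided by the count in vehicle wells. Counts were taken on 4× images of lung cancer cell lines in 1536-well plates, 5 days after pin-tool dosing the day after seeding with one drug alone or a fixed anchor-drug dose plus five library-drug doses (not always all listed) in √10 steps.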

[2] = test system: COR-L23
Procedure, shortened: as §1

[3] = test system: EPLC-272H
Procedure, shortened: as §1

[4] = test system: HARA
Procedure, shortened: as §1

[5] = test system: HCC-15
Procedure, shortened: as §1

[6] = test system: HCC-44
Procedure, shortened: as §1

[7] = test system: HOP-62
Procedure, shortened: as §1

[8] = test system: LC-2-ad
Procedure, shortened: as §1

[9] = test system: LU99A
Procedure, shortened: as §1

[10] = test system: NCI-H1355
Procedure, shortened: as §1

[11] = test system: NCI-H1651
Procedure, shortened: as §1

[12] = test system: NCI-H1915
Procedure, shortened: as §1

[13] = test system: NCI-H1993
Procedure, shortened: as §1

[14] = test system: NCI-H2023
Procedure, shortened: as §1

[15] = test system: NCI-H2085
Procedure, shortened: as §1

[16] = test system: NCI-H2126
Procedure, shortened: as §1

[17] = test system: NCI-H2347
Procedure, shortened: as §1

[18] = test system: NCI-H650
Procedure, shortened: as §1

[19] = test system: NCI-H838
Procedure, shortened: as §1

[20] = test system: PC-14
Procedure, shortened: as §1

[21] = test system: SW 1573
Procedure, shortened: as §1

[22] = test system: UMC-11
Procedure, shortened: as §1

Work on `Cc1sc2c(c1C)C(c1ccc(Cl)cc1)=N[C@@H](CC(=O)OC(C)(C)C)c1nnc(C)n1-2` [JQ1] + O=C(CCCCCCC(=O)Nc1ccccc1)NO [Vorinostat] (partner 1 µM) yielded a relative viability ([1]; first compound 0.04 µM) of 0.963, a relative viability ([1]; first compound 0.1265 µM) of 0.557 and a relative viability ([1]; first compound 0.4 µM) of 0.703. The relative viability ([1]; first compound 1.265 µM) was 0.41, the relative viability ([1]; first compound 4 µM) was 0.296 and the relative viability ([2]; first compound 0.04 µM) was 0.516. For the same compound, the relative viability ([2]; first compound 0.1265 µM) was 0.327, the relative viability ([2]; first compound 0.4 µM) was 0.401 and the relative viability ([2]; first compound 1.265 µM) was 0.269. It also gave a relative viability ([2]; first compound 4 µM) of 0.207, a relative viability ([3]; first compound 0.04 µM) of 0.473 and a relative viability ([3]; first compound 0.1265 µM) of 0.391. For the same compound, the relative viability ([3]; first compound 0.4 µM) was 0.274, the relative viability ([3]; first compound 1.265 µM) was 0.175 and the relative viability ([3]; first compound 4 µM) was 0.206. For the same compound, the relative viability ([4]; first compound 0.04 µM) was 0.464, the relative viability ([4]; first compound 0.1265 µM) was 0.514 and the relative viability ([4]; first compound 0.4 µM) was 0.396. For the same compound, the relative viability ([4]; first compound 1.265 µM) was 0.347, the relative viability ([4]; first compound 4 µM) was 0.301 and the relative viability ([5]; first compound 0.04 µM) was 0.804. For the same compound, the relative viability ([5]; first compound 0.1265 µM) was 0.705, the relative viability ([5]; first compound 0.4 µM) was 0.7 and the relative viability ([5]; first compound 1.265 µM) was 0.424. For the same compound, the relative viability ([5]; first compound 4 µM) was 0.271, the relative viability ([6]; first compound 0.04 µM) was 1.12 and the relative viability ([6]; first compound 0.1265 µM) was 1.03. It also gave a relative viability ([6]; first compound 0.4 µM) of 0.965, a relative viability ([6]; first compound 1.265 µM) of 0.788 and a relative viability ([6]; first compound 4 µM) of 0.578. For the same compound, the relative viability ([7]; first compound 0.04 µM) was 0.641, the relative viability ([7]; first compound 0.1265 µM) was 0.553 and the relative viability ([7]; first compound 0.4 µM) was 0.305. For the same compound, the relative viability ([7]; first compound 1.265 µM) was 0.12, the relative viability ([7]; first compound 4 µM) was 0.0858 and the relative viability ([8]; first compound 0.04 µM) was 0.699. For the same compound, the relative viability ([8]; first compound 0.1265 µM) was 0.396, the relative viability ([8]; first compound 0.4 µM) was 0.624 and the relative viability ([8]; first compound 1.265 µM) was 0.273. It also gave a relative viability ([8]; first compound 4 µM) of 0.3, a relative viability ([9]; first compound 0.04 µM) of 0.61 and a relative viability ([9]; first compound 0.4 µM) of 0.363. It also gave a relative viability ([9]; first compound 1.265 µM) of 0.278, a relative viability ([9]; first compound 4 µM) of 0.188 and a relative viability ([10]; first compound 0.04 µM) of 0.663. For the same compound, the relative viability ([10]; first compound 0.1265 µM) was 0.712, the relative viability ([10]; first compound 0.4 µM) was 0.541 and the relative viability ([10]; first compound 1.265 µM) was 0.401. It also gave a relative viability ([10]; first compound 4 µM) of 0.281, a relative viability ([11]; first compound 0.04 µM) of 0.615 and a relative viability ([11]; first compound 0.1265 µM) of 0.472. It also gave a relative viability ([11]; first compound 0.4 µM) of 0.445, a relative viability ([11]; first compound 1.265 µM) of 0.416 and a relative viability ([11]; first compound 4 µM) of 0.307. The relative viability ([12]; first compound 0.04 µM) was 0.508, the relative viability ([12]; first compound 0.4 µM) was 0.519 and the relative viability ([12]; first compound 1.265 µM) was 0.299. The relative viability ([12]; first compound 4 µM) was 0.203, the relative viability ([13]; first compound 0.04 µM) was 0.851 and the relative viability ([13]; first compound 0.1265 µM) was 0.785. For the same compound, the relative viability ([13]; first compound 0.4 µM) was 0.613, the relative viability ([13]; first compound 1.265 µM) was 0.388 and the relative viability ([13]; first compound 4 µM) was 0.362. For the same compound, the relative viability ([14]; first compound 0.04 µM) was 0.6, the relative viability ([14]; first compound 0.1265 µM) was 0.372 and the relative viability ([14]; first compound 0.4 µM) was 0.44. For the same compound, the relative viability ([14]; first compound 1.265 µM) was 0.156, the relative viability ([14]; first compound 4 µM) was 0.106 and the relative viability ([15]; first compound 0.04 µM) was 0.769. For the same compound, the relative viability ([15]; first compound 0.1265 µM) was 0.601, the relative viability ([15]; first compound 0.4 µM) was 0.639 and the relative viability ([15]; first compound 1.265 µM) was 0.474. For the same compound, the relative viability ([15]; first compound 4 µM) was 0.398, the relative viability ([16]; first compound 0.04 µM) was 0.725 and the relative viability ([16]; first compound 0.1265 µM) was 0.767. The relative viability ([16]; first compound 0.4 µM) was 0.583, the relative viability ([16]; first compound 1.265 µM) was 0.382 and the relative viability ([16]; first compound 4 µM) was 0.346. For the same compound, the relative viability ([17]; first compound 0.04 µM) was 0.615, the relative viability ([17]; first compound 0.1265 µM) was 0.521 and the relative viability ([17]; first compound 0.4 µM) was 0.463. It also gave a relative viability ([17]; first compound 1.265 µM) of 0.282, a relative viability ([17]; first compound 4 µM) of 0.259 and a relative viability ([18]; first compound 0.04 µM) of 0.43. It also gave a relative viability ([18]; first compound 0.1265 µM) of 0.295, a relative viability ([18]; first compound 0.4 µM) of 0.425 and a relative viability ([18]; first compound 1.265 µM) of 0.242. For the same compound, the relative viability ([18]; first compound 4 µM) was 0.192, the relative viability ([19]; first compound 0.04 µM) was 0.703 and the relative viability ([19]; first compound 0.1265 µM) was 0.322. For the same compound, the relative viability ([19]; first compound 0.4 µM) was 0.488, the relative viability ([19]; first compound 1.265 µM) was 0.277 and the relative viability ([19]; first compound 4 µM) was 0.319. The relative viability ([20]; first compound 0.04 µM) was 0.787, the relative viability ([20]; first compound 0.1265 µM) was 0.564 and the relative viability ([20]; first compound 0.4 µM) was 0.44. It also gave a relative viability ([20]; first compound 1.265 µM) of 0.203, a relative viability ([20]; first compound 4 µM) of 0.16 and a relative viability ([21]; first compound 0.04 µM) of 0.695. For the same compound, the relative viability ([21]; first compound 0.1265 µM) was 0.365, the relative viability ([21]; first compound 0.4 µM) was 0.338 and the relative viability ([21]; first compound 1.265 µM) was 0.231. It also gave a relative viability ([21]; first compound 4 µM) of 0.238, a relative viability ([22]; first compound 0.04 µM) of 0.326 and a relative viability ([22]; first compound 0.1265 µM) of 0.317. The relative viability ([22]; first compound 0.4 µM) was 0.223, the relative viability ([22]; first compound 1.265 µM) was 0.141 and the relative viability ([22]; first compound 4 µM) was 0.165.
